Data reported in ChEMBL document CHEMBL2412968, “Tetrazole-based deoxyamodiaquines: synthesis, ADME/PK profiling and pharmacological evaluation as potential antimalarial agents” (Bioorg Med Chem, 2013).
≈ marks a conversion by molar mass, not a printed value.

Experiments:
Plasmodium falciparum [1] = test: Antiplasmodial activity chloroquine-resistant Plasmodium falciparum K1 infected in human A+ erythrocytes assessed as reduction of [3H]hypoxanthine incorporation after 24 hrs by scintillation counting; type: functional, organism-based
Plasmodium falciparum [2] = test: Antiplasmodial activity chloroquine-sensitive Plasmodium falciparum 3D7 infected in human A+ erythrocytes assessed as reduction of [3H]hypoxanthine incorporation after 24 hrs by scintillation counting; type: functional, organism-based
Plasmodium falciparum [3] = test: Antiplasmodial activity chloroquine-resistant Plasmodium falciparum W2 using YOYO-1 staining after 48 hrs by FACS analysis; type: functional, organism-based; conditions: W2, 48 h
physchem [4] = conditions: 0.01 M HCl, pH 2
physchem [5] = conditions: phosphate buffered saline, pH 7.4
Hepatocyte [6] = test: Drug metabolism in rat hepatocytes assessed as formation of oxidation product at 5 uM after 1 hr; type: ADME, cell-based
Cytochrome P450 2D6 = Cytochrome P450 2D6 (Homo sapiens, UniProt P10635); test: Inhibition of CYP2D6 in human liver microsomes assessed as bufuralol 1'-hydroxylation after 20 mins by LCMS analysis; type: ADME, Microsome
Sequence of Cytochrome P450 2D6 (P10635 whole entry): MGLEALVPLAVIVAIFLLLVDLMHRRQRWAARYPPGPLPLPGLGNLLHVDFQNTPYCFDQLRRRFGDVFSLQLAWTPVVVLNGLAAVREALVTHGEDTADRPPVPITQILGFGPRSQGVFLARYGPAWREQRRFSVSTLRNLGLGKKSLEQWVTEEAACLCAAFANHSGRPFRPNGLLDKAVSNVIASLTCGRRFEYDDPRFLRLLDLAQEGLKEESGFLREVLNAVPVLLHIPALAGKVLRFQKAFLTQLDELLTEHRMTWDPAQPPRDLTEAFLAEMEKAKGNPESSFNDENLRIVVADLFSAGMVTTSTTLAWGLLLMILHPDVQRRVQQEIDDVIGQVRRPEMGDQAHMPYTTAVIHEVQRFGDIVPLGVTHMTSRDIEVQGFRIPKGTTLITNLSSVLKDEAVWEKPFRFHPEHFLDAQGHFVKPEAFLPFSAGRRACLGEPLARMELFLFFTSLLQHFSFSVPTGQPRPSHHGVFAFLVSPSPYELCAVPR

Cytochrome P450 2A6 = target: T1, Cytochrome P450 2A6 (Homo sapiens, UniProt P11509); test: Inhibition of CYP2A6 in human liver microsomes assessed as coumarin 7-hydroxylation after 20 mins by LC-MS analysis; type: ADME, Microsome
T1 sequence (P11509 whole entry): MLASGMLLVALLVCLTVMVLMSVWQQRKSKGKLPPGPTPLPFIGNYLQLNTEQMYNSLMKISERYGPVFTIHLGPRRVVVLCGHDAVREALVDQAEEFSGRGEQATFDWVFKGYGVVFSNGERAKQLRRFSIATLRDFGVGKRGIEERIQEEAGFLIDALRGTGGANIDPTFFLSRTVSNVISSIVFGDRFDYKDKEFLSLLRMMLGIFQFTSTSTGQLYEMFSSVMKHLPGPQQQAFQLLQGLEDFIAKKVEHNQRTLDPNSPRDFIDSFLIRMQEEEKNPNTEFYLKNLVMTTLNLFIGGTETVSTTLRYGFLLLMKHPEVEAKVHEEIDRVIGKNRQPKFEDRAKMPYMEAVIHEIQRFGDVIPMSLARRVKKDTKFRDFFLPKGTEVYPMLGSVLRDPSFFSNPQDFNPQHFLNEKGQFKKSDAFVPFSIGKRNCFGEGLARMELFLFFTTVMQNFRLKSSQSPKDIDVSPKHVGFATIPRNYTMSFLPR

Liver microsomes [7] = test: Metabolic stability of the compound in human liver microsomes at 1 uM after 40 mins; type: ADME, Microsome
Cytochrome P450 2C9 = Cytochrome P450 2C9 (Homo sapiens, UniProt P11712); test: Inhibition of CYP2C9 in human liver microsomes assessed as diclofenac 4'-hydroxylation after 20 mins by LCMS analysis; type: ADME, Microsome
Sequence of Cytochrome P450 2C9 (P11712 whole entry): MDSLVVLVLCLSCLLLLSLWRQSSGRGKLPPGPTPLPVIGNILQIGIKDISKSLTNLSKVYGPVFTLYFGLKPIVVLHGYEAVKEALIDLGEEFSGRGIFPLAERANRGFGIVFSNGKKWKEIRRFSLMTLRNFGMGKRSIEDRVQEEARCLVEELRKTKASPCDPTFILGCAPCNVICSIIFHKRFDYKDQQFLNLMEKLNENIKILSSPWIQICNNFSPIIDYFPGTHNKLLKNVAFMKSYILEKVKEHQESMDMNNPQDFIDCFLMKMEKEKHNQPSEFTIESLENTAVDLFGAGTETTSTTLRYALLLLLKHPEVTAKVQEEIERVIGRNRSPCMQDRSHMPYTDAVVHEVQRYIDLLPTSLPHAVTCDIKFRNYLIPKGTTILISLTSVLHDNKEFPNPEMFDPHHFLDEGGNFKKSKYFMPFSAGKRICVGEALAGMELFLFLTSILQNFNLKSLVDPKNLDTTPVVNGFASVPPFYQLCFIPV

Liver microsomes [8] = test: Metabolic stability in human liver microsomes assessed as level of GSH adduct at 5 uM after 1 hr; type: ADME, Microsome
[9] = Half life in albino Wistar rat at 1 mg/kg, iv; type: ADME, organism-based; set-up: dose 1 mg/kg, route intravenous; conditions: in vivo
[10] = AUC (infinity) in albino Wistar rat at 1 mg/kg, iv; type: ADME, organism-based; set-up: time infinity, dose 1 mg/kg, route intravenous; conditions: plasma
[11] = Tmax in albino Wistar rat at 10 mg/kg, po; type: ADME, organism-based; set-up: dose 10 mg/kg, route oral; conditions: in vivo
Cytochrome P450 2C8 = target: T2, Cytochrome P450 2C8 (Homo sapiens, UniProt P10632); test: Inhibition of CYP2C8 in human liver microsomes assessed as paclitaxel 6alpha-hydroxylation after 20 mins by LC-MS analysis; type: ADME, Microsome
T2 sequence (P10632 whole entry): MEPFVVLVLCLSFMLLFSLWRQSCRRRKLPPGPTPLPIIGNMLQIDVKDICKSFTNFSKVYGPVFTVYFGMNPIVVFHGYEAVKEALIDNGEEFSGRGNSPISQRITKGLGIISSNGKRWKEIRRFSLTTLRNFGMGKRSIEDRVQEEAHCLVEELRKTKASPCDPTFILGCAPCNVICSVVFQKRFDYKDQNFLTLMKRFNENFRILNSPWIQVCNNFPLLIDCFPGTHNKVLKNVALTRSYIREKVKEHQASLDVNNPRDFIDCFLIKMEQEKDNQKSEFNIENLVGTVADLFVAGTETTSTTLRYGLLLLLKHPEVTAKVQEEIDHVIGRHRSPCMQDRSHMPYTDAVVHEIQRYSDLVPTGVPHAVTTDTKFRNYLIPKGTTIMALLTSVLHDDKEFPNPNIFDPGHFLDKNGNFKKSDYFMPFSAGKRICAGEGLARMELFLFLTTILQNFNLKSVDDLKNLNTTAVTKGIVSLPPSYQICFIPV

[12] = Oral bioavailability in albino Wistar rat at 10 mg/kg; type: ADME, organism-based; conditions: in vivo
Cytochrome P450 2C19 = Cytochrome P450 2C19 (Homo sapiens, UniProt P33261); test: Inhibition of CYP2C19 in human liver microsomes assessed as S-mephenytoin 4'-hydroxylation after 20 mins by LCMS analysis; type: ADME, Microsome
Sequence of Cytochrome P450 2C19 (P33261 whole entry): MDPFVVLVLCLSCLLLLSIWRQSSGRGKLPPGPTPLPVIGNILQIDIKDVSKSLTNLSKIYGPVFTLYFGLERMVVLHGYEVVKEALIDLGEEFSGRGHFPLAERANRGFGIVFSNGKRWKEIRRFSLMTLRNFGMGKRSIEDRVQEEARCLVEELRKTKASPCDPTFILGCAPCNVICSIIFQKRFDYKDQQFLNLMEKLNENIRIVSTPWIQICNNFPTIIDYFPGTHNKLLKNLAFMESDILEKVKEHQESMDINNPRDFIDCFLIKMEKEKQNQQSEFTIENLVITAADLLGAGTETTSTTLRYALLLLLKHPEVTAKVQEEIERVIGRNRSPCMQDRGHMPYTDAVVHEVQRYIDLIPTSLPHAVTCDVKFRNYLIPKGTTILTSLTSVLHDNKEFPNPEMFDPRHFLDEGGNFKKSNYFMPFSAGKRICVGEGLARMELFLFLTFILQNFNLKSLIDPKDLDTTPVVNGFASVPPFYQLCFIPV

Liver microsomes [13] = test: Metabolic stability in rat liver microsomes assessed as level of GSH adduct at 5 uM after 1 hr; type: ADME, Microsome
Cytochrome P450 3A4 = Cytochrome P450 3A4 (Homo sapiens, UniProt P08684); test: Inhibition of CYP3A4 in human liver microsomes assessed as midazolam 1'-hydroxylation after 20 mins by LCMS analysis; type: ADME, Microsome
Sequence of Cytochrome P450 3A4 (P08684 whole entry): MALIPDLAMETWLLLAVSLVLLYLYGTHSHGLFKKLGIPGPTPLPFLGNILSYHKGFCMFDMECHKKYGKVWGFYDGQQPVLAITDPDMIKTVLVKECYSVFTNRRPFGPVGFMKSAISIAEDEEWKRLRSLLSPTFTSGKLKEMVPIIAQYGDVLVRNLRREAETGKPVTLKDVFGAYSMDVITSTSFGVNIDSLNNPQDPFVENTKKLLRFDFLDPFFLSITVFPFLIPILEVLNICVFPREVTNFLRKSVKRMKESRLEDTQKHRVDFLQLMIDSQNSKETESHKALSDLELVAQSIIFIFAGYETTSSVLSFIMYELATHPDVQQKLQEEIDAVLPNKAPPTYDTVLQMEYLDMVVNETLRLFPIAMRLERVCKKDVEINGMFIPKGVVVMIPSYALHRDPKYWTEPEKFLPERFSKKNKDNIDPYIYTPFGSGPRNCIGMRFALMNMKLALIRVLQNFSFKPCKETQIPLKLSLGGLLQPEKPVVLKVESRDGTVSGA

[14] = Cmax in albino Wistar rat at 10 mg/kg, po; type: ADME, organism-based; set-up: dose 10 mg/kg, route oral; conditions: in vivo
CHO = test: Cytotoxicity against CHO cells by MTT assay; type: cell-based; conditions: Cricetulus griseus
Liver microsomes [15] = test: Metabolic stability of the compound in rat liver microsomes at 1 uM after 40 mins; type: ADME, Microsome
Liver microsomes [16] = test: Drug metabolism in rat liver microsomes assessed as formation of N-dealkylation product at 5 uM after 1 hr; type: ADME, Microsome
[17] = AUC (infinity) in albino Wistar rat at 10 mg/kg, po; type: ADME, organism-based; set-up: time infinity, dose 10 mg/kg, route oral; conditions: plasma
Hepatocyte [18] = test: Metabolic stability in rat hepatocytes assessed as level of GSH adduct at 5 uM after 1 hr; type: ADME, cell-based
Cytochrome P450 1A2 = target: T3, Cytochrome P450 1A2 (Homo sapiens, UniProt P05177); test: Inhibition of CYP1A2 in human liver microsomes assessed as phenacetin O-deethylation after 20 mins by LC-MS analysis; type: ADME, Microsome
T3 sequence (P05177 whole entry): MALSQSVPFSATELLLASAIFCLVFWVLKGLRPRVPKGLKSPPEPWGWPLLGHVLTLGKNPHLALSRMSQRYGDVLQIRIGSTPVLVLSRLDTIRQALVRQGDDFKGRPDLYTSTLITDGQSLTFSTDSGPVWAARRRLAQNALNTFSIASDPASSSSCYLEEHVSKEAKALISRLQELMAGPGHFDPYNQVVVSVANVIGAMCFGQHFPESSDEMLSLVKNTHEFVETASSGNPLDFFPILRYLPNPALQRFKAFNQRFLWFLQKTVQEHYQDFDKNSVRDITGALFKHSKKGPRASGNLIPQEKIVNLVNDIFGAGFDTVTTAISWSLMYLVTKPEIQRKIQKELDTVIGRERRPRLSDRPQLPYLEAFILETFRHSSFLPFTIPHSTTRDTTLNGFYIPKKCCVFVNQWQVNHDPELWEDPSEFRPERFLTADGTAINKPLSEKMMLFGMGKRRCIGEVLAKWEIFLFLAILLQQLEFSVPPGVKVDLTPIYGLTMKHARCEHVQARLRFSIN

Cytochrome P450 2E1 = Cytochrome P450 2E1 (Homo sapiens, UniProt P05181); test: Inhibition of CYP2E1 in human liver microsomes assessed as chlorzoxazone 6-hydroxylation after 20 mins by LC-MS analysis; type: ADME, Microsome
Sequence of Cytochrome P450 2E1 (P05181 whole entry): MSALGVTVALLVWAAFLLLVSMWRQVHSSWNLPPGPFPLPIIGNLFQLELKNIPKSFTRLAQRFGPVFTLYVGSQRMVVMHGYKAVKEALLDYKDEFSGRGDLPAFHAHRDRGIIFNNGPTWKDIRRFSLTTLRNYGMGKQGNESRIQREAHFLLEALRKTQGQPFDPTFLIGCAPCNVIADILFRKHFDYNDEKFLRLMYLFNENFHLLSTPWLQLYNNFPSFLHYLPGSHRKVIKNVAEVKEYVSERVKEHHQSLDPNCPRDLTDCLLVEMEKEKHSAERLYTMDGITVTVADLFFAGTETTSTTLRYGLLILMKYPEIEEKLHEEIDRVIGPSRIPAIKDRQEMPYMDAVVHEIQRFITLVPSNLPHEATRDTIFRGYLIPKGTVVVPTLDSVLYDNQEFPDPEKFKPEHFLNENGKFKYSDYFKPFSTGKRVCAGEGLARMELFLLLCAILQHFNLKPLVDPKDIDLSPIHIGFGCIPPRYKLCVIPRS

[19] = Volume of distribution at steady state in albino Wistar rat at 1 mg/kg, iv; type: ADME, organism-based; set-up: dose 1 mg/kg, route intravenous; conditions: in vivo, read-out: Vdss
Cytochrome P450 2B6 = target: T4, Cytochrome P450 2B6 (Homo sapiens, UniProt P20813); test: Inhibition of CYP2B6 in human liver microsomes assessed as bupropion hydroxylation after 20 mins by LC-MS analysis; type: ADME, Microsome
T4 sequence (P20813 whole entry): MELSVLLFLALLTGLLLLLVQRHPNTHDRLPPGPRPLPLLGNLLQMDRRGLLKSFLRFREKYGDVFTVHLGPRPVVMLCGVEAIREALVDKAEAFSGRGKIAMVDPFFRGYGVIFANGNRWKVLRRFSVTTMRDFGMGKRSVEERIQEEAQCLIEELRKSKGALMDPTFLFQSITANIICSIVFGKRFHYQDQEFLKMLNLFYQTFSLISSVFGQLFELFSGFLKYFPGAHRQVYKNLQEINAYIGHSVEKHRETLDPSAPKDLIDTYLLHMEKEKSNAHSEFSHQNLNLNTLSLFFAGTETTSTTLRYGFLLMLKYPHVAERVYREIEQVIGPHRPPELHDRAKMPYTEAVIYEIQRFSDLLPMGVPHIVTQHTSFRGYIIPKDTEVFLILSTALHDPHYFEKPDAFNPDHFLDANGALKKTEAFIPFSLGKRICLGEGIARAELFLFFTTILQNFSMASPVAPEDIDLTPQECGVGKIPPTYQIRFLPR

[20] = Clearance in albino Wistar rat at 1 mg/kg, iv; type: ADME, organism-based; set-up: dose 1 mg/kg, route intravenous; conditions: in vivo
Hepatocyte [21] = test: Metabolic stability in human hepatocytes assessed as level of GSH adduct at 5 uM after 1 hr; type: ADME, cell-based

CCN(CC)Cc1cc(Nc2ccnc3cc(Cl)ccc23)ccc1O
IC50 (Plasmodium falciparum [1]): 27 nM | IC50 (Plasmodium falciparum [2]): 1 nM | IC50 (Plasmodium falciparum [3]): 401 nM

CN(C)C(c1cccc(Nc2ccnc3cc(Cl)ccc23)c1)c1nnnn1C(C)(C)C (stereo unspecified)
solubility kinetic at 2 h (physchem [4]): > 200 µM | IC50 (Plasmodium falciparum [1]): 150 nM | IC50 (Plasmodium falciparum [2]): 52 nM | solubility kinetic at 2 h (physchem [5]): 7.3 µM (≈ 3.18 µg/mL) | IC50 (Plasmodium falciparum [3]): 227 nM

CC(C)(C)n1nnnc1C(c1cccc(Nc2ccnc3cc(Cl)ccc23)c1)N1CCCC1 (stereo unspecified)
Drug metabolism (Hepatocyte [6]): Active | IC50 (Cytochrome P450 2D6): 3.46 µM | IC50 (Cytochrome P450 2A6): > 20 µM | Stability (Liver microsomes [7]): Unstable | IC50 (Cytochrome P450 2C9): 3.14 µM | Stability (Liver microsomes [8]): Stable | solubility kinetic at 2 h (physchem [4]): > 200 µM | IC50 (Plasmodium falciparum [1]): 9.6 nM | IC50 (Plasmodium falciparum [2]): 10 nM | half-life [9]: 51 min | AUC(0-inf) [10]: 63.5 ng·h/mL | Tmax [11]: 15 min | solubility kinetic at 2 h (physchem [5]): < 5 µM | IC50 (Cytochrome P450 2C8): 120 nM | bioavailability [12]: 3.3% | IC50 (Cytochrome P450 2C19): 13.8 µM | Stability (Liver microsomes [13]): Stable | IC50 (Cytochrome P450 3A4): 1450 nM | Cmax [14]: 13.3 ng/mL | IC50 (CHO): 117 µM | Stability (Liver microsomes [15]): Unstable | Drug metabolism (Liver microsomes [16]): Active | AUC(0-inf) [17]: 21 ng·h/mL | Stability (Hepatocyte [18]): Stable | IC50 (Cytochrome P450 1A2): 2540 nM | IC50 (Cytochrome P450 2E1): > 20 µM | IC50 (Plasmodium falciparum [3]): 77 nM | Vd [19]: 12.2 L/kg | IC50 (Cytochrome P450 2B6): > 20 µM | clearance [20]: 278 mL/min/kg | Stability (Hepatocyte [21]): Stable

CC(C)(C)n1nnnc1C(c1cccc(Nc2ccnc3cc(Cl)ccc23)c1)N1CCCCC1 (stereo unspecified)
solubility kinetic at 2 h (physchem [4]): > 200 µM | IC50 (Plasmodium falciparum [1]): 170 nM | IC50 (Plasmodium falciparum [2]): 50 nM | solubility kinetic at 2 h (physchem [5]): < 5 µM | IC50 (Plasmodium falciparum [3]): 82 nM

CC(C)(C)n1nnnc1C(c1cccc(Nc2ccnc3cc(Cl)ccc23)c1)N1CCOCC1 (stereo unspecified)
IC50 (Plasmodium falciparum [1]): 1290 nM | IC50 (Plasmodium falciparum [2]): 99 nM | IC50 (Plasmodium falciparum [3]): 195 nM

CN(C)C(c1cccc(Nc2ccnc3cc(Cl)ccc23)c1)c1nnnn1CCN1CCOCC1 (stereo unspecified)
IC50 (Plasmodium falciparum [1]): 379 nM | IC50 (Plasmodium falciparum [2]): 379 nM | IC50 (Plasmodium falciparum [3]): 544 nM

CCN(CC)C(c1cccc(Nc2ccnc3cc(Cl)ccc23)c1)c1nnnn1CCN1CCOCC1 (stereo unspecified)
IC50 (Plasmodium falciparum [1]): 245 nM | IC50 (Plasmodium falciparum [2]): 30 nM | IC50 (Plasmodium falciparum [3]): 194 nM

Clc1ccc2c(Nc3cccc(C(c4nnnn4CCN4CCOCC4)N4CCCC4)c3)ccnc2c1 (stereo unspecified)
IC50 (Plasmodium falciparum [1]): 310 nM | IC50 (Plasmodium falciparum [2]): 220 nM | IC50 (Plasmodium falciparum [3]): 3390 nM
